Test results taken from patent publication US20250243488A1, “METHODS OF MODULATING PROGRANULIN EXPRESSION USING ANTISENSE OLIGONUCLEOTIDES TARGETING REGULATORY RNAS” (Camp4 Therapeutics Corporation, priority 2022, published 2025).
Oligonucleotides are written 5' to 3', each unit as a sugar letter and its base; * is a phosphorothioate linkage, no mark a phosphodiester; rarer units and linkages stand in square brackets, end groups in braces. Plain capitals give the bases only. e = 2'-O-(2-methoxyethyl) (MOE); l = locked nucleic acid (LNA); [5mC] = 5-methylcytosine; d = 2'-deoxy (DNA)

System: GRN mRNA
Assay: GRN mRNA qPCR in SK-N-AS cells transfected with ASOs
Type: cell-based, human
Settings: for 120 nM FC (GRN mRNA) / hGRN mRNA FC: 120 nM
Outline: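 Fold change in GRN mRNA, by qPCR with GAPDH/PPIA housekeeping normalization, referenced to steric non-targeting control ASO(s) such as CO-1589. ASOs were transfected into SK-N-AS neuroblastoma cells in dose titrations (20 to 160 nM initially). Cells were harvested 48 hours post-transfection.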

[1] = Table 8, SK-N-AS, normalized to CO-1589 (sNTC1)
[2] = Table 4, SK-N-AS, normalized to CO-3772 and CO-1589 (sNTC1)
[3] = Table 7, SK-N-AS, normalized to CO-1589 (sNTC1)
[4] = Table 11, SK-N-AS, 48 hours, normalized to CO-1589
[5] = Table 12, SK-N-AS, normalized to CO-1589
[6] = Table 13, SK-N-AS, normalized to CO-1589
[7] = Table 9, SK-N-AS, 48 hours post-transfection, normalized to CO-1589
[8] = Table 10, SK-N-AS, 48 hours, normalized to CO-1589
[9] = Table 3, SK-N-AS, normalized to CO-3772 and CO-1589 (sNTC1)

CO-5288: ASO based on CO-3463 incorporating additional LNA modifications (antisense lG*lG*eA*lT*lA*eG*lG*eA*lT*eA*lG*eG*lA*eG*l[5mC]*eG*lA*eG*l[5mC]*l[5mC])
GRN mRNA upregulation as compared to control ASO CO-1589 (SK-N-AS, Table 8 series): 2 fold | 7.5 nM FC (GRN mRNA) [1]: 1.3 FC | 13 nM FC (GRN mRNA) [1]: 1.5 FC | 30 nM FC (GRN mRNA) [1]: 1.5 FC | 60 nM FC (GRN mRNA) [1]: 1.9 FC | 120 nM FC (GRN mRNA) [1]: 1.9 FC | 150 nM FC (GRN mRNA) [1]: 2.1 FC

CO-4362: longer ASO based on CO-3423 (antisense eG*eA*e[5mC]*eT*eT*dG*dG*dG*eA*dG*dT*eG*dG*dT*dG*eA*e[5mC]*eT*eG*eA)
30 nM FC (GRN mRNA) [2]: 1.1 FC | 60 nM FC (GRN mRNA) [2]: 1.1 FC | 120 nM FC (GRN mRNA) [2]: 1.4 FC

CO-4361: longer ASO based on CO-3423 (antisense eG*eA*e[5mC]*eT*eT*dG*dG*dG*dA*dG*dT*dG*dG*dT*dG*eA*e[5mC]*eT*eG*eA)
30 nM FC (GRN mRNA) [2]: 1.1 FC | 60 nM FC (GRN mRNA) [2]: 1.3 FC | 120 nM FC (GRN mRNA) [2]: 1.6 FC

CO-5266: CO-3423 with additional LNA tiling and PO bond modifications (antisense GGACTTGGGAGTGGTGACTG; 2'-MOE, mixed PS/PO, 5-methylcytosine; listed as RNA; modified_base 1..7: mod_base = OTHER; note = Phosphorothioate linkage; modified_base 17..20: mod_base = OTHER; modified_base 1..20: mod_base = OTHER; note = 2'-O-(2-methoxyethyl) ribonucleotide; modified_base 4)
7.5 nM FC (GRN mRNA) [3]: 1.0 FC | 13 nM FC (GRN mRNA) [3]: 1.0 FC | 30 nM FC (GRN mRNA) [3]: 1.2 FC | 60 nM FC (GRN mRNA) [3]: 1.7 FC | 120 nM FC (GRN mRNA) [3]: 2.0 FC | 150 nM FC (GRN mRNA) [3]: 2.2 FC

CO-8877: hGRN regRNA-targeting ASO with additional chemical modifications (antisense eT*eA*lG*e[5mC]*eA*dA*dA*d[5mC]*dT*d[5mC]*d[5mC]*d[5mC]*d[5mC]*d[5mC]*dA*eG*eG*l[5mC]*eG*e[5mC])
GRN mRNA expression in SK-N-AS cells (3.75 to 90 nM, 48 hours post-transfection, normalized to sNTC (FIGS. 26A, 26B)): dose-dependent increase

CO-6448: ASO designed to target an intragenic enhancer RNA (eRNA) (eT*e[5mC]*e[5mC]*e[5mC]*eG*eG*eT*eG*e[5mC]*e[5mC]*e[5mC]*eT*eG*eA*eT*eG*eG*eT*eT*e[5mC])
hGRN mRNA FC [4]: 1.1 FC

CO-6388: ASO based on parent ASO CO-3462 (antisense eT*eA*eG*eG*eA*lG*dA*dA*lT*d[5mC]*dG*l[5mC]*dT*dT*lT*eG*eG*eG*eA*eG)
30 nM FC (GRN mRNA) [5]: 1.1 FC | 60 nM FC (GRN mRNA) [5]: 1.0 FC | 120 nM FC (GRN mRNA) [5]: 1.4 FC

CO-6412: ASO based on parent ASOs CO-4363 and CO-4364 (antisense eG*eG*eA*e[5mC]*eT*dT*dG*dG*dG*dA*dG*dT*dG*dG*dT*dG*eA*e[5mC]*eT*eG*eA)
30 nM FC (GRN mRNA) [6]: 1.0 FC | 60 nM FC (GRN mRNA) [6]: 0.8 FC | 120 nM FC (GRN mRNA) [6]: 0.9 FC

CO-6393: ASO based on parent ASO CO-3462 (antisense eT*eA*lG*eG*lA*eG*lA*eA*lT*e[5mC]*lG*e[5mC]*lT*eT*lT*eG*lG*eG*eA*eG)
30 nM FC (GRN mRNA) [5]: 0.9 FC | 60 nM FC (GRN mRNA) [5]: 0.7 FC | 120 nM FC (GRN mRNA) [5]: 1.0 FC

CO-4609: ASO designed to target intergenic enhancers (eRNA) (antisense e[5mC]*e[5mC]*eA*eA*eT*eA*eA*eA*eG*e[5mC]*e[5mC]*eT*eT*eG*eG*eG*eT*eG*e[5mC]*e[5mC])
hGRN mRNA FC [7]: 1.2 FC

CO-6439: ASO designed to target an intragenic enhancer RNA (eRNA) (eG*e[5mC]*eT*e[5mC]*e[5mC]*e[5mC]*eT*eG*eT*eG*eT*eG*e[5mC]*eT*eA*e[5mC]*eT*eG*eA*eG)
hGRN mRNA FC [4]: 1.1 FC

CO-4629: ASO designed to target intergenic enhancers (eRNA) (antisense eA*eT*eG*eG*e[5mC]*eA*eA*eA*eT*eG*eA*e[5mC]*e[5mC]*eT*eT*e[5mC]*eG*eG*eT*eA)
hGRN mRNA FC [7]: 1.1 FC

CO-4623: ASO designed to target intergenic enhancers (eRNA) (antisense e[5mC]*e[5mC]*eT*eG*eA*e[5mC]*e[5mC]*eT*eG*e[5mC]*e[5mC]*eA*eT*e[5mC]*eT*eA*eT*e[5mC]*eA*eA)
hGRN mRNA FC [7]: 1.1 FC

CO-4649: ASO designed to target intergenic enhancers (eRNA) (antisense eT*eG*eG*eG*eA*e[5mC]*eA*eG*e[5mC]*eG*eT*eG*eG*eA*eT*eT*eA*eA*eT*eA)
hit identification (GRN mRNA dose escalation) (SK-N-AS, 3.75 nM to 120 nM, 48 hours): initial hits | hGRN mRNA FC [7]: 1.2 FC | 3.75 nM FC (GRN mRNA) (Table 10, SK-N-AS, 3.75 nM, 48 hours, normalized to CO-1589): 1.2 FC | 7.5 nM FC (GRN mRNA) [8]: 1.2 FC | 15 nM FC (GRN mRNA) (Table 10, SK-N-AS, 15 nM, 48 hours, normalized to CO-1589): 1.3 FC | 30 nM FC (GRN mRNA) [8]: 1.2 FC | 60 nM FC (GRN mRNA) [8]: 1.2 FC | 120 nM FC (GRN mRNA) [8]: 1.3 FC

CO-6425: ASO based on parent ASOs CO-4363 and CO-4364 (eG*eG*eG*eA*e[5mC]*eT*eT*eG*eG*eG*eA*eG*eT*eG*eG*eT*eG*eA*e[5mC]*eT*eG*eA*eA*e[5mC])
30 nM FC (GRN mRNA) [6]: 0.9 FC | 60 nM FC (GRN mRNA) [6]: 1.3 FC | 120 nM FC (GRN mRNA) [6]: 1.3 FC

CO-6442: ASO designed to target an intragenic enhancer RNA (eRNA) (e[5mC]*eT*eG*eG*eG*eA*eG*e[5mC]*e[5mC]*eT*eG*eG*e[5mC]*eT*eG*eA*eT*eG*e[5mC]*eA)
hGRN mRNA FC [4]: 1.2 FC

CO-6403: ASO based on parent ASO CO-3462 (antisense eG*eG*eT*eA*eG*eG*eA*dG*dA*dA*dT*d[5mC]*dG*d[5mC]*dT*dT*dT*eG*eG*eG*eA*eG*e[5mC]*eA)
30 nM FC (GRN mRNA) [5]: 1.6 FC | 60 nM FC (GRN mRNA) [5]: 2.2 FC | 120 nM FC (GRN mRNA) [5]: 2.4 FC

CO-6409: ASO based on parent ASO CO-3462 (antisense eT*eA*eGeG*eA*eGeA*eA*eTe[5mC]*eG*e[5mC]eT*eT*eTeG*eG*eGeA*eG)
30 nM FC (GRN mRNA) [5]: 1.1 FC | 60 nM FC (GRN mRNA) [5]: 1.1 FC | 120 nM FC (GRN mRNA) [5]: 1.5 FC

CO-4612: ASO designed to target intergenic enhancers (eRNA) (antisense eA*eT*eG*eG*e[5mC]*eT*eA*eA*eA*eA*e[5mC]*eT*eA*e[5mC]*e[5mC]*eT*eT*e[5mC]*e[5mC]*eA)
hGRN mRNA FC [7]: 1.0 FC

CO-6435: ASO designed to target an intragenic enhancer RNA (eRNA) (eA*eG*eG*e[5mC]*e[5mC]*eA*e[5mC]*e[5mC]*eT*eG*e[5mC]*eT*eG*e[5mC]*eT*e[5mC]*e[5mC]*eG*eA*eT)
hGRN mRNA FC [4]: 1.2 FC

CO-4353: LNA/PS modified ASO based on CO-3423 (antisense eG*eG*eA*e[5mC]*eT*lT*dG*dG*lG*dA*dG*lT*dG*dG*lT*eG*eA*e[5mC]*eT*eG)
30 nM FC (GRN mRNA) [9]: 1.4 FC | 60 nM FC (GRN mRNA) [9]: 1.4 FC | 120 nM FC (GRN mRNA) [9]: 1.8 FC

CO-4643: ASO designed to target intergenic enhancers (eRNA) (antisense e[5mC]*eG*eG*e[5mC]*eA*eT*eT*e[5mC]*e[5mC]*e[5mC]*eT*eG*eA*e[5mC]*e[5mC]*eT*eA*eT*e[5mC]*e[5mC])
hGRN mRNA FC [7]: 0.9 FC

CO-4364: longer ASO based on CO-3423 (antisense eG*eG*eA*e[5mC]*eT*eT*eG*eG*eG*eA*eG*eT*eG*eG*eT*eG*eA*e[5mC]*eT*eG*eA*eA*e[5mC])
30 nM FC (GRN mRNA) [2]: 1.1 FC | 60 nM FC (GRN mRNA) [2]: 1.3 FC | 120 nM FC (GRN mRNA) [2]: 1.6 FC | 7.5 nM FC (GRN mRNA) [3]: 1.1 FC | 13 nM FC (GRN mRNA) [3]: 1.2 FC | 30 nM FC (GRN mRNA) [3]: 1.7 FC | 60 nM FC (GRN mRNA) [3]: 2.1 FC | 120 nM FC (GRN mRNA) [3]: 1.9 FC | 150 nM FC (GRN mRNA) [3]: 2.3 FC | 30 nM FC (GRN mRNA) [6]: 1.1 FC | 60 nM FC (GRN mRNA) [6]: 1.5 FC | 120 nM FC (GRN mRNA) [6]: 1.6 FC
